Assay [1] concerns the target T1, Sentrin-specific protease 8 (Homo sapiens, UniProt Q96LD8).
T1 sequence (Q96LD8 whole entry): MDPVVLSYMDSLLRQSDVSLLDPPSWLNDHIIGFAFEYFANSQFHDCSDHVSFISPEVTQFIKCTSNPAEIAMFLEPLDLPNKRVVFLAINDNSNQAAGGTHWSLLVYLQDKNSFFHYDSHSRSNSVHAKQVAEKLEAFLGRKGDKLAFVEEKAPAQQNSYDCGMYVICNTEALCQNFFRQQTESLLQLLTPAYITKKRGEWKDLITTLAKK
The assay is classed as functional.

Assay [2] addresses T1, Sentrin-specific protease 8. Format: functional. This is another data set of the same source.
Assay [3] addresses T2, Heat shock factor protein 1 (Mus musculus, UniProt P38532).
T2 sequence (P38532 whole entry): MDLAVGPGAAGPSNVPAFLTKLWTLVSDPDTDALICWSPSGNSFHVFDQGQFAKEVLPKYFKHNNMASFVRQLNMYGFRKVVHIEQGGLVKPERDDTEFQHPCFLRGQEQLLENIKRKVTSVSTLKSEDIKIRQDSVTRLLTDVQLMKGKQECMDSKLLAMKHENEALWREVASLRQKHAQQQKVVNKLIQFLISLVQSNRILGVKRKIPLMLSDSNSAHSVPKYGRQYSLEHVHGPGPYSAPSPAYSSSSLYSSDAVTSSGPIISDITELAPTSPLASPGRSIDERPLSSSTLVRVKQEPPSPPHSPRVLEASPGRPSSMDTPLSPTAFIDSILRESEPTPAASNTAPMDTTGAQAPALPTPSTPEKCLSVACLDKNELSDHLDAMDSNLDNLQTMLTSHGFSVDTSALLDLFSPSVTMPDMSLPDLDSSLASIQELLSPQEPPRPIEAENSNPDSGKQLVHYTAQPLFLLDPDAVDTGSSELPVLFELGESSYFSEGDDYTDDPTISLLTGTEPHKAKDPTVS
As to the kind of experiment: enhancement of HSF1-driven luciferase signal – cell-based, NIH3T3, luminescence, dose retest, confirmation (AID 435004).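 Also: stress induced by proteasome inhibitor MG132 added 30 min after compound; luciferase reporter driven by HSF1 response element in NIH3T3 cells; actives raise luminescence as potentiators of the MG132 stress response.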 Format: functional.

The next assay addresses T3, Streptokinase A (Streptococcus pyogenes serotype M1, UniProt P10520).
T3 sequence (P10520 whole entry): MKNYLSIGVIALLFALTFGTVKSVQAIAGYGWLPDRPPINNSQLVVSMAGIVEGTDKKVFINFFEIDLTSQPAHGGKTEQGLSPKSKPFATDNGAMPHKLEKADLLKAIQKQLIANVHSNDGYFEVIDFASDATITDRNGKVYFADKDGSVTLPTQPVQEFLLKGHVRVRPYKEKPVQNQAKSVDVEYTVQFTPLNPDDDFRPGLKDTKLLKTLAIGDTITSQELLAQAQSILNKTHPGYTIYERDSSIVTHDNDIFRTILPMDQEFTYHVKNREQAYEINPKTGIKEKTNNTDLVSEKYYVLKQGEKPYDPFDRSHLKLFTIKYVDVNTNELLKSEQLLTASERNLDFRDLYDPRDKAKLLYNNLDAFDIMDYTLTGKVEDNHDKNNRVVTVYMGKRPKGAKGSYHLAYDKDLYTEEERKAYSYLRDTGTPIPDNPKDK
Put plainly: viability-normalized secreted streptokinase activity reduction – plasminogen activation absorbance, OD405, dose response (AID 1914).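 Also: secreted streptokinase activity via plasminogen activation per viability signal from cell pellet.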 The assay is classed as functional, Streptococcus pyogenes M1 GAS.

The test system of assay [4] is Vero. Put plainly: cells. Format: functional. To be noted: Chlorocebus sabaeus.
A further assay deals with Streptococcus. As to the kind of experiment: GAS UMAA2166 growth inhibition – luminescence, BacTiterGlo, counter-screen for streptokinase expression inhibitor project, dose response (AID 1915).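 Also: potency for reduction of bacterial viability or growth.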 Format: functional, organism-based.
The nature of assay [5]: Luminescence Cell-Based Dose Response HTS to Identify Inhibitors of 5'UTR Stem-Loop Driven Prion Protein mRNA Translation in H4 Neuroglioblastoma Cells. [Related pubchem assays: 1827 (Project Summary), 1813 (Primary HTS)]. The assay is classed as functional.
The nature of assay [6]: luciferase reporter signal suppression in cells – H4 neuroglioma cells, luminescence, dose response (AID 1990). Format: functional, cell-based.
For assay [7], the system named is Streptococcus sp. 'group A'. Put plainly: Streptococcus pyogenes SK(-)GAS viability under kanamycin – luminescence, BacTiterGlo, confirmation, counter-screen for streptokinase expression inhibitor project, dose response (AID 1900). Format: functional, organism-based.
Assay [8] relates to Vero. As to the kind of experiment: viability of Vero cells under compound – cytotoxicity control for flavivirus capping enzyme inhibitors (AID 588742). The assay is classed as functional. The note with it: Chlorocebus sabaeus.
Another assay addresses T4, Cytochrome P450 1A2 (Homo sapiens, UniProt P05177).
T4 sequence (P05177 whole entry): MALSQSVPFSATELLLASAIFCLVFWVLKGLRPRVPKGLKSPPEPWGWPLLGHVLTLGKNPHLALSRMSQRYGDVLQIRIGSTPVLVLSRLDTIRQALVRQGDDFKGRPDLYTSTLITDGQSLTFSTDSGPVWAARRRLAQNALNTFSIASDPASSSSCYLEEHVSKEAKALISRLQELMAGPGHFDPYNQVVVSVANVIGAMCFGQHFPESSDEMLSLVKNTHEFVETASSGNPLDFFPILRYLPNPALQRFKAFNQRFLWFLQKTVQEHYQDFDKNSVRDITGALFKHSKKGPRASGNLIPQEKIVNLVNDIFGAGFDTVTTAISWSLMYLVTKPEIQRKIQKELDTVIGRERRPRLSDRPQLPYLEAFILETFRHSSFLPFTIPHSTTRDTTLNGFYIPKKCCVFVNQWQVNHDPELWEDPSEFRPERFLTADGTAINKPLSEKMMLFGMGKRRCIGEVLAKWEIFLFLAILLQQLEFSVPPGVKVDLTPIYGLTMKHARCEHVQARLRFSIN

The target in assay [9] is T5, Low molecular weight phosphotyrosine protein phosphatase (Homo sapiens, UniProt P24666).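 Also: Dose-response confirmation assay measuring inhibition of LMPTP enzyme activity by fluorescence intensity read-out.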
T5 sequence (P24666 whole entry): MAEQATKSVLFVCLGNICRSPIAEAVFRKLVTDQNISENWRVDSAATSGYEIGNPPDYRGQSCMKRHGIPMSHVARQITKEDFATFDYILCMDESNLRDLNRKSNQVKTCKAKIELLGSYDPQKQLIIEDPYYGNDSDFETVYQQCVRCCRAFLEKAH
Format: functional. To be noted: read-out: IC50_Mean.

Assay [10] addresses T6, Carboxy-terminal domain RNA polymerase II polypeptide A small phosphatase 1 (Homo sapiens, UniProt Q9GZU7).
T6 sequence (Q9GZU7 whole entry): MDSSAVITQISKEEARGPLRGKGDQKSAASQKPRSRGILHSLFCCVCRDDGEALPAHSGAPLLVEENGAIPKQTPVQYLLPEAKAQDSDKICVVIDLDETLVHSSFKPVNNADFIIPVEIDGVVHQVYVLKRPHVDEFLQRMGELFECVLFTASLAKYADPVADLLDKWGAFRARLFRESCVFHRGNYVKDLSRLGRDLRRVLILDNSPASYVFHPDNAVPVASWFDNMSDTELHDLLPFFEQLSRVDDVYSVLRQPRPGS
Put plainly: CTDSP1 inhibitors, concentration-response, biochemical, absorbance readout, ultra-high-throughput screen actives (AID 540297). Format: functional.

Assay [11] addresses T7, Histone-lysine N-methyltransferase NSD2 (Homo sapiens, UniProt O96028).
T7 sequence (O96028 whole entry): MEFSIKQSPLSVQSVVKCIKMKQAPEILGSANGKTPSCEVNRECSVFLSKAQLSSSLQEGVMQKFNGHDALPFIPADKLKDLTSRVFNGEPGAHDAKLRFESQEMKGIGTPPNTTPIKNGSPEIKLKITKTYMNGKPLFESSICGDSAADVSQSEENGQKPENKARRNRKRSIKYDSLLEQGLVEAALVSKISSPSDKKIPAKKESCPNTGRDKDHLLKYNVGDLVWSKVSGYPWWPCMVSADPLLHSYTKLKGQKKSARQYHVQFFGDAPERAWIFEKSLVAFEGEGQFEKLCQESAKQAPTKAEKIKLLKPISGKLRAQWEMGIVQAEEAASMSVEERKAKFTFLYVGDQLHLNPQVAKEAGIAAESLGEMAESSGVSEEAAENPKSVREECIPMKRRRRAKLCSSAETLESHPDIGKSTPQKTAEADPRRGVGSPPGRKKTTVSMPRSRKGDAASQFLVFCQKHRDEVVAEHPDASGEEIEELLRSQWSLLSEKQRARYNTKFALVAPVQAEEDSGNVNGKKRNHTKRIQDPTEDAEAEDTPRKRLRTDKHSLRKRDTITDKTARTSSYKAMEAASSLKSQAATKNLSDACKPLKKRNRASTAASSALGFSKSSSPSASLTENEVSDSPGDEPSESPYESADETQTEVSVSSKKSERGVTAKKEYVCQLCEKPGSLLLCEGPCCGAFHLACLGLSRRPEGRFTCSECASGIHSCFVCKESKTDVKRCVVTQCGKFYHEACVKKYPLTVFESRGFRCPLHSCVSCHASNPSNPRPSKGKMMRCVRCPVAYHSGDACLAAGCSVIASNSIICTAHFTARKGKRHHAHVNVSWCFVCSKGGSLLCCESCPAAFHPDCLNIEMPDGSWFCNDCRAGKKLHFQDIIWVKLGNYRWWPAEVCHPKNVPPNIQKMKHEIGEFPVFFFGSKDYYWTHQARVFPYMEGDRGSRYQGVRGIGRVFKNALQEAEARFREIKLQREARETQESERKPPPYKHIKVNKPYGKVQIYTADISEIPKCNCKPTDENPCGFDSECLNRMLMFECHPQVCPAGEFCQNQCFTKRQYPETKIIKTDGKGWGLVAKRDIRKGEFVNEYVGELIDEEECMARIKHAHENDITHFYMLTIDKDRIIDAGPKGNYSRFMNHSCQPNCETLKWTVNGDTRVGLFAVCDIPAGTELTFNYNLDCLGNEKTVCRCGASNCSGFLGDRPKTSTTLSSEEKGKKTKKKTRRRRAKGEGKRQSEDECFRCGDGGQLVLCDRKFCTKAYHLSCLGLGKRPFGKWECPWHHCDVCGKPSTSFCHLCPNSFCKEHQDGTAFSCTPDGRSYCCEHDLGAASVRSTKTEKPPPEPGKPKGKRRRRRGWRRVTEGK
Format: biochemical.

The next assay concerns the target Genome polyprotein (dengue virus type 2, UniProt P29990). Put plainly: flavivirus cap methylation enzyme inhibition – biochemical, confirmation dose response, primary screen (AID 588689). Format: functional.
Assay [12] has as its target T8, Fatty acid synthase (Homo sapiens, UniProt P49327). As to the kind of experiment: inhibition of human FAS-TE enzyme activity – biochemical, endpoint fluorescence intensity, uHTS hits, dose response (AID 624327).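 Also: fluorescence from hydrolysis of an O-methyl fluorescein acyl ester substrate by the enzyme.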 Format: functional.
Assay [13] deals with T9, High affinity choline transporter 1 (Homo sapiens, UniProt Q9GZV3).
T9 sequence (Q9GZV3 whole entry): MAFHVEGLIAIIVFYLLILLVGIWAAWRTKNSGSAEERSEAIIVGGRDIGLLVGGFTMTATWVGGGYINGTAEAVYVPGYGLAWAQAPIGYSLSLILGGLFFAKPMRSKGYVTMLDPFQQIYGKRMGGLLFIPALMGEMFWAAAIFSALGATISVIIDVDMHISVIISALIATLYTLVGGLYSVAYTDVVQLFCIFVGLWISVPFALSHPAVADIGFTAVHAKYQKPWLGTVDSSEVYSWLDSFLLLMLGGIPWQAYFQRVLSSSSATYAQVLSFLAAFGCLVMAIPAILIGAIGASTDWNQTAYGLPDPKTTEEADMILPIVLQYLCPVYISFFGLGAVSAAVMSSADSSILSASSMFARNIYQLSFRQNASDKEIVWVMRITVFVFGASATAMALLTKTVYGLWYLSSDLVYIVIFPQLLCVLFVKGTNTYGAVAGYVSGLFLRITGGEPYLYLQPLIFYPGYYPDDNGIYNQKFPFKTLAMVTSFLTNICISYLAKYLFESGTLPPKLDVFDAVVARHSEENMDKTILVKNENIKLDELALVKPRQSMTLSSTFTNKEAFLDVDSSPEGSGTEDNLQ
Put plainly: human choline transporter blockers, potency – cell-based, 5-point CRC, membrane potential dye, dose response (AID 504840). The assay is classed as functional.

Assay [14] has as its target T8, Fatty acid synthase. As to the kind of experiment: inhibition of human FAS-TE enzyme activity – biochemical, kinetic fluorescence intensity, dose response (AID 624326).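 Also: rate of fluorescence rise from hydrolysis of a fluorogenic O-methyl fluorescein ester substrate.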 The assay is classed as functional.

Each structure is given as a SMILES string. The source made the active and inactive calls. Where only a bound is given, the exact number is not on record here.

This note sets out measurements from ChEMBL document CHEMBL1201862, “PubChem BioAssay data set” (2004).

Chain of Genome polyprotein (P29990 2492-3391 limits assumed): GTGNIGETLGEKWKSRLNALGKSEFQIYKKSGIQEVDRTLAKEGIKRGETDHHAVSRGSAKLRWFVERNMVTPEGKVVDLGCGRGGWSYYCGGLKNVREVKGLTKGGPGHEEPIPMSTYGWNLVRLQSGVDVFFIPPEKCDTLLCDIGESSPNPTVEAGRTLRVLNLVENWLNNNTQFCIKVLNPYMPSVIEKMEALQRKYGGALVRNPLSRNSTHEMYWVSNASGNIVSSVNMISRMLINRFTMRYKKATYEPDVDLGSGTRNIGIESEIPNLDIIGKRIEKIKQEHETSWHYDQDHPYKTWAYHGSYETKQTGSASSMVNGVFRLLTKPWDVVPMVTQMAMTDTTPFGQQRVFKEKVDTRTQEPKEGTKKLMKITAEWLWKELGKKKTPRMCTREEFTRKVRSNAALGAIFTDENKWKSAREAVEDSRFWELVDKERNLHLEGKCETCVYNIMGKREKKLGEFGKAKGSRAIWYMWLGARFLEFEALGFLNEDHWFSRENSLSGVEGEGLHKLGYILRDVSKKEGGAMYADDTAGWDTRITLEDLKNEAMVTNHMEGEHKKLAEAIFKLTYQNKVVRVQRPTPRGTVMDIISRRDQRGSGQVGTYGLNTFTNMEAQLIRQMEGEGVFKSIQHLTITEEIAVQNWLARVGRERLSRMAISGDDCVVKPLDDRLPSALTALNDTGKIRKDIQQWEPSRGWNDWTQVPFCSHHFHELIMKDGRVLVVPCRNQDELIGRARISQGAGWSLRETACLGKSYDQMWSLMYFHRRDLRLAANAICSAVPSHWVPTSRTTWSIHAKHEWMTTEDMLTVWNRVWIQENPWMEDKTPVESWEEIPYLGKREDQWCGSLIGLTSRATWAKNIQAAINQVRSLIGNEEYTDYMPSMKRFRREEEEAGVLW
T8 sequence (P49327 whole entry): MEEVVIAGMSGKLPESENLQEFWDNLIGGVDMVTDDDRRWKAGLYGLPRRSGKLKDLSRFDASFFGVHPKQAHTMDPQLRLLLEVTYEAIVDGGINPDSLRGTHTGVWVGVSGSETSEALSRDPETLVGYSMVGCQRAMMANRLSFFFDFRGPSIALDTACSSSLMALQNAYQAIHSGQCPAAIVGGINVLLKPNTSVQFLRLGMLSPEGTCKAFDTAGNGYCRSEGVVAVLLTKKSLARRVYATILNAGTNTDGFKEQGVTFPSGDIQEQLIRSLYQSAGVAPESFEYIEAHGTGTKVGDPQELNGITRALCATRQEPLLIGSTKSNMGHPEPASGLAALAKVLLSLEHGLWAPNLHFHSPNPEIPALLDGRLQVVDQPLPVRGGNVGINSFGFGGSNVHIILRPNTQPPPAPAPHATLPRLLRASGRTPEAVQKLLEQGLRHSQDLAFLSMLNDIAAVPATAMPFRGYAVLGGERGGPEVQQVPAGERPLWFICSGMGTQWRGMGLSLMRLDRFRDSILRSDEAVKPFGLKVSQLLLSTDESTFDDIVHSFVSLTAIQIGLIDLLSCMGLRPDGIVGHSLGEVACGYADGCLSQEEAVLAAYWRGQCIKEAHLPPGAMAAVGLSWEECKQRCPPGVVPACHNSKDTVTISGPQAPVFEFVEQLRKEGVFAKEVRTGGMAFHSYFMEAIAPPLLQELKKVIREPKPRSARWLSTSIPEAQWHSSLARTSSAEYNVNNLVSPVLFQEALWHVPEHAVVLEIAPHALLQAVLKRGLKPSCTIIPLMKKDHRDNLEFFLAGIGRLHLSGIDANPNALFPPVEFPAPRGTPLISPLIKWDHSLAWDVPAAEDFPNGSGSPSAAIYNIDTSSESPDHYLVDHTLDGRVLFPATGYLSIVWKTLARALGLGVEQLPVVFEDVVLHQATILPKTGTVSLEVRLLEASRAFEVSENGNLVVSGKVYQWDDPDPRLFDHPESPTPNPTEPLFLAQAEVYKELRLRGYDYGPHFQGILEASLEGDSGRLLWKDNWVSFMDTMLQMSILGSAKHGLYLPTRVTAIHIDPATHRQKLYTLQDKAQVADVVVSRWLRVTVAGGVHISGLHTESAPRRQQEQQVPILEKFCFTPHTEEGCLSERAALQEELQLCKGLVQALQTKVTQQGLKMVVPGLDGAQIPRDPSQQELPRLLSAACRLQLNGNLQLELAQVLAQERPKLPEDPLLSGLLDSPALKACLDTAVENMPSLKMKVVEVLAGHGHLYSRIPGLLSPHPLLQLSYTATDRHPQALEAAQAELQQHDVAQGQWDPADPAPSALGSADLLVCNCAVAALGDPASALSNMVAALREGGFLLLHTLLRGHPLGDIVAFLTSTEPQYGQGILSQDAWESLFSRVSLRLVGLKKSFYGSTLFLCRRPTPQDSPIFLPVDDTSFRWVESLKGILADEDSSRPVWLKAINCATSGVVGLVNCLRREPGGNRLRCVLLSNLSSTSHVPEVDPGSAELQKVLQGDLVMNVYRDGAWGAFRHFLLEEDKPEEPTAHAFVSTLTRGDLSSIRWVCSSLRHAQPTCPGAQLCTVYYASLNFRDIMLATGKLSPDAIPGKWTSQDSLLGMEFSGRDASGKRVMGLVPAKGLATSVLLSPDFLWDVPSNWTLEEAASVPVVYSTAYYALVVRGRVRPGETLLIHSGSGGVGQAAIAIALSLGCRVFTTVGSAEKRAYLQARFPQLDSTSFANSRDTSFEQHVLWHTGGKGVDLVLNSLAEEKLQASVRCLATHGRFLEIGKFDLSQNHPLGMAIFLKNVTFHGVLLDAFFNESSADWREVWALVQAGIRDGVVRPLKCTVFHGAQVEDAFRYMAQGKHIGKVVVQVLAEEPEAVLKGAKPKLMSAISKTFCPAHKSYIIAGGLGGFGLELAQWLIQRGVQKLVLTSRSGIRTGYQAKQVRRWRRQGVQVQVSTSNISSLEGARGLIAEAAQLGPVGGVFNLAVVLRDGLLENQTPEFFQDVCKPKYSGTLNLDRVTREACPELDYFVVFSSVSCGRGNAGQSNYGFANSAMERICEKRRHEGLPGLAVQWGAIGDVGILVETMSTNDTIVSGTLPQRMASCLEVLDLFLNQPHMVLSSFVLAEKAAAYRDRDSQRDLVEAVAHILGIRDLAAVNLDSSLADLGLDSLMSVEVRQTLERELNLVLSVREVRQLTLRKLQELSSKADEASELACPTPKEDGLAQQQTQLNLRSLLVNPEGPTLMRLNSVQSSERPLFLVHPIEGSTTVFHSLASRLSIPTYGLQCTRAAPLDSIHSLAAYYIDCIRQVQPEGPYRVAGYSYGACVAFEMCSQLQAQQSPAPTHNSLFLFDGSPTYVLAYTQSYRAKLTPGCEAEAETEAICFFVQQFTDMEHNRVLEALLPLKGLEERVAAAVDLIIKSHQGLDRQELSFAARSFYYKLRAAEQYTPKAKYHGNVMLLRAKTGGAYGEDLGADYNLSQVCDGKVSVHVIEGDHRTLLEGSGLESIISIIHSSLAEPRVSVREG

In the case of `Cc1[nH][nH]c(=O)c1C(c1c(C)[nH][nH]c1=O)c1cn(Cc2ccc(Cl)c(Cl)c2)c2ccccc12`, the IC50 in assay [1] is 6.19 µM (active); in assay [2] it was 5.81 µM (active). Moreover, the EC50 was 27 µM (active) in [3] and 10.1 µM (active) on Streptokinase A.
For the compound `Cc1n[nH]c(O)c1C(c1c(C)n[nH]c1O)c1cn(Cc2ccc(Cl)c(Cl)c2)c2ccccc12`, the CC50 was 10.1 µM (active) in the assay on Vero [4] and 5.47 µM (active) in the assay with Vero [8]. Also, the EC50 in the assay on Streptococcus was 77.9 µM (active); in assay [5], 0.26 µM (active); in assay [6], 13.6 µM (active); in [7], 4.35 µM (active).
Take `Cc1sc2c(c1C)C(c1ccc(C(C)(C)C)cc1)=NCC(=O)N2CC(=O)Nc1nccs1`: the CC50 in the assay with Vero [8] was > 40 µM (active). In addition, the AC50 at Cytochrome P450 1A2 was 22.4 µM (inconclusive).
`O=C(O)c1ccc(Nc2nc(-c3ccc([N+](=O)[O-])cc3)nc3ccccc23)cc1`: the IC50 is 10.9 µM (active) in assay [9] and 4.57 µM (active) in [10].
Regarding `Cc1ccc(S(=O)(=O)/N=C2\C=C(NS(=O)(=O)c3ccccc3)C(=O)c3ccccc32)cc1`, the AC50 in assay [11] is 2.18 µM (active). Besides, in the assay with Vero [8], the CC50 was > 40 µM (active). The IC50 at Genome polyprotein was 35.8 µM (active).
In the case of `NC(=S)N=Nc1c(O)cc(O)c2nc(O)ccc12`, the CC50 in the assay with Vero [8] was > 40 µM (active). Further, the IC50 at Genome polyprotein was 20 µM (active).
With `Cc1cc(=O)n(-c2ccc3ccccc3n2)[nH]1`, the IC50 is 30.4 µM (active) in [1] and 24.2 µM (active) in assay [2].
In the case of `C/C(=N\NS(=O)(=O)c1ccc(Cl)c([N+](=O)[O-])c1)c1cc2ccccc2o1`, the IC50 in assay [9] is 80 µM (inactive); on Fatty acid synthase [12], 12.3 µM (active); in assay [13], 4.37 µM (active); at Fatty acid synthase [14], 15.6 µM (active).
